Results: patent publication US8933106B2, “2-(4-substituted phenylamino) polysubstituted pyridine compounds as inhibitors of non-nucleoside HIV reverse transcriptase, preparation methods and uses thereof” (Institute of Pharmacology and Toxicology Academy of …, priority 2008, dated 2015)
Values after ≈ are worked out from the molar mass of the structure shown.

Experiments:
Type in all cases: cell-based
HIV-1IIIB virus strain = assay: Anti-HIV activity test (MT-2 cell model), p24 antigen ELISA; conditions: MT-2 cells; for EC50: Human immunodeficiency virus 1, MT2, HIV-1IIIB, 4th day, p24 antigen; for SI(CC50/EC50): ratio of toxicity CC50 value to activity EC50 value
Description: Please refer to the document (Jiang, S., et al. Antimicrob. Agents Chemother. 2004, 48, 4349-4359). In a 96-pore cell culture plate, 50 μl of different concentrations of compound solutions were respectively mixed with equal-volume of HIV-1IIIB virus strain (100 TCID50), and incubated at 37° C. for 30 min, and then 100 μl MT-2 cell (1×10^5/mL, RPIM 1640 culture medium containing 10% serum) was added, and mixed homogenously, followed by incubation at 37° C. overnight. On the second day, 150 μl of the supernatant was sucked out, and equal-volume of fresh culture medium was replenished, followed by further incubation at 37° C. for 3 days. On the 4th day, cytopathic effect (CPE) was recorded. Thereafter, 100 μl of culture supernatant was sucked out, virus particles were split using 5% Triton X-100, and p24 antigen therein was tested by using ELISA assay. Briefly, a ELISA plate was coated with HIVIG (2 μg/mL), and blocked with 1% fat-free milk, then a virus lysate was added therein, followed by incubation at 37° C. for 60 min. After fully washing the plate, anti-p24 monoclonal antibody-183-12H-5C, biotin-labeled goat antimouse antibody and […]-labeled horseradish peroxidase were added in sequence. Then, after developing with TMB, OD was tested at 450 nm. The 50% effective concentration (EC50) of the compound was calculated using CalcuSyn software.

[1] = Cytotoxicity test of the compound (MT-2 cells, XTT); conditions: human, 4th day
Description: Please refer to the document (Jiang, S., et al. Antimicrob. Agents Chemother. 2004, 48, 4349-4359). In a 96-pore cell culture plate, 50 μl of different concentrations of compound solutions were respectively mixed with equal-volume of PBS, and incubated at 37° C. for 30 min, and then 100 μl MT-2 (or H9) cells (1×10^5/mL, RPIM 1640 culture medium containing 10% serum) was added, and mixed homogenously, followed by incubation at 37° C. overnight. On the second day, 150 μl of the supernatant was sucked out, and equal-volume of fresh culture medium was replenished, followed by further incubation at 37° C. for 3 days. On the 4th day, 50 μl of a XTT solution (1 mg/mL) containing PMS as freshly prepared was added. After 4 h, OD at 450 nm was tested. The 50% cytotoxicity concentration (CC50) of the compound was calculated using CalcuSyn software.

[2] = Toxicity in uninfected H9 cells; conditions: human, uninfected H9 lymphocytes, no virus
Description: Please refer to the document (J. Med. Chem. 2004, 47, 756-760). Lymphocytes H9 were cultivated in culture medium 1640, under the conditions of 5% CO2, 37° C. The test compound was initially dissolved in DMSO, and then diluted with culture medium to conventional screening concentrations: 100, 20, 4, 0.8 μg/mL. The cultivated H9 cells were divided into two portions, one of which was infected with HIV virus (IIIB) (m.i.o. 0.1-0.01 infectious Units/cell), and used for the determination of activity. Another portion of the cells, in which no virus, but merely culture medium was added, was used for the determination of toxicity. After having been cultivated under completely the same conditions (37° C., 5% CO2) for 4 h, the two portions of cells were washed with fresh culture medium for 3 times, and then respectively added to different concentrations of test samples as formulated or to blank culture medium (the latter is positive infection control or negative drug control), while using AZT as positive drug control. […] On the 4th day, the cell membranes of the cells infected with virus were firstly removed, and the cytosol was tested by using P24 antigen ELISA assay to determine the activity of the samples, which was expressed as EC50. […] The portion of cells in which no virus was added was tested by using cytometry to determine the toxicity of the samples, which was expressed as CC50. […]

HIV virus (IIIB) = assay: Anti-HIV activity test (H9 cell model), P24 antigen ELISA; conditions: for SI(CC50/EC50): H9 cells, ratio of toxicity CC50 value to activity EC50 value; for EC50: Human immunodeficiency virus 1, 96 h, H9 cells infected with HIV (IIIB), 4 days, P24 antigen
Description: Please refer to the document (J. Med. Chem. 2004, 47, 756-760). Lymphocytes H9 were cultivated in culture medium 1640, under the conditions of 5% CO2, 37° C. The test compound was initially dissolved in DMSO, and then diluted with culture medium to conventional screening concentrations: 100, 20, 4, 0.8 μg/mL. The cultivated H9 cells were divided into two portions, one of which was infected with HIV virus (IIIB) (m.i.o. 0.1-0.01 infectious Units/cell), and used for the determination of activity. Another portion of the cells, in which no virus, but merely culture medium was added, was used for the determination of toxicity. After having been cultivated under completely the same conditions (37° C., 5% CO2) for 4 h, the two portions of cells were washed with fresh culture medium for 3 times, and then respectively added to different concentrations of test samples as formulated or to blank culture medium (the latter is positive infection control or negative drug control), while using AZT as positive drug control. All of these cells were cultivated under the conditions of 5% CO2, 37° C. for 4 days. On the 4th day, the cell membranes of the cells infected with virus were firstly removed, and the cytosol was tested by using P24 antigen ELISA assay to determine the activity of the samples, which was expressed as EC50. EC50 meant an effective concentration at which 50% of virus replication was inhibited. The portion of cells in which no virus was added was tested by using cytometry to determine the toxicity of the samples, which was expressed as CC50. CC50 meant a concentration at which 50% of living cells were killed.

Row | SMILES | EC50 (HIV-1IIIB virus strain) [µg/mL] | SI(CC50/EC50) (HIV-1IIIB virus strain) | CC50 at 4 days [1] [µg/mL] | CC50 at 4 days [2] [µg/mL] | SI(CC50/EC50) (HIV virus (IIIB)) | EC50 (HIV virus (IIIB)) [µg/mL]
1 | Cc1cc(Br)cc(C)c1Oc1ccc([N+](=O)[O-])c(Nc2ccc(C#N)cc2)n1 [Compound I-1, 2-(4-cyanophenylamino)-6-(2,6-dimethyl-4-bromophenoxy)-3-nitropyridine] | 0.52 (≈ 1.18 µM) | 62 | 32.2 (≈ 73.4 µM) | 19.4 (≈ 44.1 µM) | >774 | < 0.025
2 | Cc1cc(C#N)cc(C)c1Oc1ccc([N+](=O)[O-])c(Nc2ccc(C#N)cc2)n1 [Compound I-2, 2-(4-cyanophenylamino)-6-(2,6-dimethyl-4-cyanophenoxy)-3-nitropyridine] | 0.052 (≈ 0.135 µM) | 371 | 19.3 (≈ 50.1 µM) | > 25 | >10,000 | 0.0025 (≈ 0.00649 µM)
